In the supplement of paper PMC10307832 one finds relative viability data, which are given here for 7 cell lines.

Experiment in all cases: relative viability (nuclei count vs DMSO), 5 days (fraction); higher = more cells survive
Compound in one experiment: C1=CC(=CC=C1NC(=S)NNC2=C(C=C(C=C2[N+](=O)[O-])C(F)(F)F)[N+](=O)[O-])F [Kobe2602]
The essentials: (§1)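 Lung cancer cell lines in 1536-well plates were kept overnight at 37 °C, then pinned with five library-drug doses (not always all listed) spaced by √10 on vehicle-anchored plates. After 5 days without medium change, cells were fixed, permeabilised and Hoechst-stained in one step, imaged at 4×, and nuclei were counted with MetaXpress. Viability is treated-well nuclei divided by vehicle-well nuclei, taken as the median over plates. Plates passed only with control CV below 25% and at least one doubling.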

Compound in the next experiment: COc1cc2nccc(Oc3ccc(NC(=O)C4(C(=O)Nc5ccc(F)cc5)CC4)cc3)c2cc1OC [Cabozantinib]
The essentials:
as §1

Compound in another experiment: O[C@@H](COc1cccc2ncccc12)CN1CCN([C@@H]2c3ccccc3[C@@H]3[C@H](c4ccccc42)C3(F)F)CC1 [Zosuquidar]
The method in brief: as §1

Compound in the experiment “Cabozantinib + Dasatinib”: COc1cc2nccc(Oc3ccc(NC(=O)C4(C(=O)Nc5ccc(F)cc5)CC4)cc3)c2cc1OC [Cabozantinib] + Cc1nc(Nc2ncc(C(=O)Nc3c(C)cccc3Cl)s2)cc(N2CCN(CCO)CC2)n1 [Dasatinib] (partner 0.075 µM)
The essentials: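 Values are medians from duplicate plates. Each reflects relative viability, defined as the nuclei count of treated wells over that of vehicle wells. Lung cancer cell lines in 1536-well plates were pin-tool dosed one day after seeding with one drug alone or with a fixed anchor-drug dose plus five library-drug doses (not always all listed) in √10 steps, then fixed, stained and imaged at 4× after 5 days.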

As to NCI-H1437, the relative viability stood at 0.958 with Kobe2602 (0.2 µM); 0.978 in the experiment with Kobe2602 (0.6325 µM); 1 with Kobe2602 (2 µM); 0.983 with Kobe2602 (6.325 µM); 0.96 in the experiment with Kobe2602 (20 µM); 1.05 in the experiment with Cabozantinib (0.02 µM). Besides, the relative viability came out at 1.08 with Cabozantinib (0.06325 µM); 0.946 in the experiment with Cabozantinib (0.2 µM); 0.998 with Cabozantinib (0.6325 µM); 0.975 with Cabozantinib (2 µM); 0.976 with Zosuquidar (0.01 µM); 0.979 in the experiment with Zosuquidar (0.03162 µM). Also, the relative viability in the experiment with Zosuquidar (0.1 µM) was 0.91; with Zosuquidar (0.3162 µM) it was 1.09; in the experiment with Zosuquidar (1 µM) it was 0.942; with Cabozantinib + Dasatinib (first compound 0.02 µM) it was 0.263; with Cabozantinib + Dasatinib (first compound 0.06325 µM) it was 0.617; in the experiment with Cabozantinib + Dasatinib (first compound 0.2 µM), 0.371. Moreover, the relative viability stood at 0.377 in the experiment with Cabozantinib + Dasatinib (first compound 0.6325 µM) and 0.309 with Cabozantinib + Dasatinib (first compound 2 µM).

NCI-H1563: the relative viability with Kobe2602 (0.2 µM) was 0.899; with Kobe2602 (0.6325 µM) it was 1; with Kobe2602 (2 µM) it was 0.96; with Kobe2602 (6.325 µM) it was 0.971; with Kobe2602 (20 µM) it was 0.981; with Cabozantinib (0.02 µM) it was 0.99. In addition, the relative viability with Cabozantinib (0.06325 µM) turned out to be 0.977; with Cabozantinib (0.2 µM), 1.04; with Cabozantinib (0.6325 µM) it was 0.915; in the experiment with Cabozantinib (2 µM), 1.01; with Zosuquidar (0.01 µM), 0.936; in the experiment with Zosuquidar (0.03162 µM), 0.929. Further, the relative viability with Zosuquidar (0.1 µM) was 0.974; with Zosuquidar (0.3162 µM), 1.13; in the experiment with Zosuquidar (1 µM), 0.865; in the experiment with Cabozantinib + Dasatinib (first compound 0.02 µM), 0.386; with Cabozantinib + Dasatinib (first compound 0.06325 µM), 0.424; in the experiment with Cabozantinib + Dasatinib (first compound 0.2 µM) it was 0.43. Also, the relative viability was 0.498 with Cabozantinib + Dasatinib (first compound 0.6325 µM) and 0.452 with Cabozantinib + Dasatinib (first compound 2 µM).

For NCI-H1623, the relative viability with Kobe2602 (0.2 µM) was 1.04; with Kobe2602 (0.6325 µM), 1; in the experiment with Kobe2602 (2 µM), 1.03; with Kobe2602 (6.325 µM), 0.9; with Kobe2602 (20 µM), 0.933; with Cabozantinib (0.02 µM) it was 0.959. Moreover, the relative viability with Cabozantinib (0.06325 µM) came out at 1.13; in the experiment with Cabozantinib (0.2 µM) it was 0.731; with Cabozantinib (0.6325 µM) it was 1; in the experiment with Cabozantinib (2 µM), 0.972; in the experiment with Zosuquidar (0.01 µM) it was 0.98; in the experiment with Zosuquidar (0.03162 µM), 0.898. Also, the relative viability in the experiment with Zosuquidar (0.1 µM) stood at 0.879; with Zosuquidar (0.3162 µM), 1; with Zosuquidar (1 µM), 1.02; in the experiment with Cabozantinib + Dasatinib (first compound 0.02 µM), 0.483; with Cabozantinib + Dasatinib (first compound 0.06325 µM) it was 0.606; in the experiment with Cabozantinib + Dasatinib (first compound 0.2 µM), 0.486. Besides, the relative viability in the experiment with Cabozantinib + Dasatinib (first compound 0.6325 µM) was 0.486; with Cabozantinib + Dasatinib (first compound 2 µM), 0.568.

Consider NCI-H1650, for which the relative viability stood at 0.891 in the experiment with Kobe2602 (0.2 µM); 1.02 in the experiment with Kobe2602 (0.6325 µM); 0.99 with Kobe2602 (2 µM); 0.913 with Kobe2602 (6.325 µM); 0.846 with Kobe2602 (20 µM); 0.925 in the experiment with Cabozantinib (0.02 µM). In addition, the relative viability stood at 1.13 with Cabozantinib (0.06325 µM); 0.805 in the experiment with Cabozantinib (0.2 µM); 1.02 in the experiment with Cabozantinib (0.6325 µM); 0.89 with Cabozantinib (2 µM); 0.885 with Zosuquidar (0.01 µM); 0.929 with Zosuquidar (0.03162 µM). Also, the relative viability with Zosuquidar (0.1 µM) was found to be 0.876; with Zosuquidar (0.3162 µM), 1.06; with Zosuquidar (1 µM) it was 0.912; with Cabozantinib + Dasatinib (first compound 0.02 µM), 0.261; with Cabozantinib + Dasatinib (first compound 0.06325 µM), 0.292; in the experiment with Cabozantinib + Dasatinib (first compound 0.2 µM), 0.294. Further, the relative viability with Cabozantinib + Dasatinib (first compound 0.6325 µM) came to 0.303; in the experiment with Cabozantinib + Dasatinib (first compound 2 µM), 0.225.

Regarding NCI-H1651, the relative viability with Kobe2602 (0.2 µM) came to 0.982; in the experiment with Kobe2602 (0.6325 µM) it was 1.01; with Kobe2602 (2 µM), 0.981; in the experiment with Kobe2602 (6.325 µM), 0.967; with Kobe2602 (20 µM), 1.01; in the experiment with Cabozantinib (0.02 µM) it was 0.95. In addition, the relative viability with Cabozantinib (0.06325 µM) was 1.07; in the experiment with Cabozantinib (0.2 µM), 0.92; with Cabozantinib (0.6325 µM), 0.981; with Cabozantinib (2 µM), 0.968; with Zosuquidar (0.01 µM) it was 0.985; with Zosuquidar (0.03162 µM), 1.02. The relative viability was found to be 0.911 with Zosuquidar (0.1 µM); 1.02 with Zosuquidar (0.3162 µM); 0.983 in the experiment with Zosuquidar (1 µM); 0.336 in the experiment with Cabozantinib + Dasatinib (first compound 0.02 µM); 0.39 with Cabozantinib + Dasatinib (first compound 0.06325 µM); 0.327 with Cabozantinib + Dasatinib (first compound 0.2 µM). Further, the relative viability in the experiment with Cabozantinib + Dasatinib (first compound 0.6325 µM) came to 0.335; in the experiment with Cabozantinib + Dasatinib (first compound 2 µM) it was 0.396.

For the cell line NCI-H1666, the relative viability is 1.06 in the experiment with Kobe2602 (0.2 µM); 1.01 with Kobe2602 (0.6325 µM); 0.963 with Kobe2602 (2 µM); 1.03 with Kobe2602 (6.325 µM); 1 in the experiment with Kobe2602 (20 µM); 1.01 with Cabozantinib (0.02 µM). Also, the relative viability was determined as 1.08 with Cabozantinib (0.06325 µM); 1.02 in the experiment with Cabozantinib (0.2 µM); 1.03 with Cabozantinib (0.6325 µM); 1.06 with Cabozantinib (2 µM); 0.997 in the experiment with Zosuquidar (0.01 µM); 1.08 with Zosuquidar (0.03162 µM). Further, the relative viability worked out at 0.962 with Zosuquidar (0.1 µM); 1.08 with Zosuquidar (0.3162 µM); 0.945 with Zosuquidar (1 µM); 0.727 with Cabozantinib + Dasatinib (first compound 0.02 µM); 0.899 with Cabozantinib + Dasatinib (first compound 0.06325 µM); 0.766 with Cabozantinib + Dasatinib (first compound 0.2 µM). Moreover, the figures for the relative viability in the experiment with Cabozantinib + Dasatinib (first compound 0.6325 µM) and with Cabozantinib + Dasatinib (first compound 2 µM) were 0.839 and 0.795, respectively.

In the case of NCI-H1734, the relative viability with Kobe2602 (0.2 µM) came out at 1.05; in the experiment with Kobe2602 (0.6325 µM), 1.05; with Kobe2602 (2 µM) it was 0.973; in the experiment with Kobe2602 (6.325 µM), 0.987; with Kobe2602 (20 µM) it was 1.1; with Cabozantinib (0.02 µM), 0.92. Further, the relative viability was 1.01 with Cabozantinib (0.06325 µM); 1.11 with Cabozantinib (0.2 µM); 1.02 with Cabozantinib (0.6325 µM); 0.938 with Cabozantinib (2 µM); 1 with Zosuquidar (0.01 µM); 1 with Zosuquidar (0.03162 µM). Besides, the relative viability came out at 0.928 with Zosuquidar (0.1 µM); 1.08 with Zosuquidar (0.3162 µM); 0.938 in the experiment with Zosuquidar (1 µM); 0.389 with Cabozantinib + Dasatinib (first compound 0.02 µM); 0.452 with Cabozantinib + Dasatinib (first compound 0.06325 µM); 0.467 with Cabozantinib + Dasatinib (first compound 0.2 µM). In addition, the relative viability in the experiment with Cabozantinib + Dasatinib (first compound 0.6325 µM) amounted to 0.402; with Cabozantinib + Dasatinib (first compound 2 µM), 0.34.
